From patent US12465613B2, “Pharmaceutical composition for use in the prophylactic and/or therapeutic treatment of L-DOPA-induced dyskinesia” (UNIVERSIDADE DE SANTIAGO DE COMPOSTELA, priority 2019, dated 2025)
Entries after “also recorded” stand apart in the source; their conditions may differ.

Assays:
Assay type in all cases: in vivo, rats of the Sprague-Dawley strain
[1] = test system: RhoA; assay: RhoA expression in striatum and substantia nigra of dyskinetic animals (Western blot, real-time PCR; Example 1)
[2] = test system: ROCK; assay: ROCK expression and activity in striatum and substantia nigra of dyskinetic animals (Western blot, real-time PCR; Example 1)
[3] = test system: rats injected with 6-OHDA, dyskinesias induced by L-DOPA; assay: Abnormal involuntary movements (AIMs) when fasudil is co-administered from before and during chronic L-DOPA treatment (Example 2)
[4] = test system: rats with unilateral lesion with 6-OHDA; assay: Rotational behavior induced by L-DOPA (Example 3); conditions: different doses of fasudil (10, 30, 40 mg/kg)
[5] = test system: rats with unilateral lesion with 6-OHDA, established dyskinesias induced by L-DOPA; assay: AIMs in animals with already established dyskinesias (L-DOPA 3 weeks, then L-DOPA and fasudil; Example 4)
[6] = L-DOPA 6 mg/kg and 12 mg/kg, normalized to 6-OHDA animals treated with saline, p<0.05
[7] = daily L-DOPA 6 or 12 mg/kg, 3-4 weeks, increase greater with the higher dose
[8] = fasudil 10 mg/kg/day i.p., L-DOPA 6 mg/kg, 3 weeks, relative to L-DOPA only
[9] = fasudil 30 mg/kg i.p., chronic L-DOPA

N[C@@H](Cc1ccc(O)c(O)c1)C(=O)O [L-DOPA]
RhoA protein expression in the substantia nigra [1, 6]: significant increase | RhoA protein expression in the striatum ([1]; L-DOPA 6 and 12 mg/kg): only significant with the high dose | levels of the RhoA protein in dyskinetic animals [1, 7]: significant increase | ROCK activity in the substantia nigra ([2]; L-DOPA 6 mg/kg and 12 mg/kg, normalized to 6-OHDA animals treated with saline): significant increase | ROCK protein expression in the substantia nigra [2, 6]: significant increase | ROCK protein expression in the striatum ([2]; L-DOPA 6 and 12 mg/kg): only significant with the high dose | levels of the ROCK protein in dyskinetic animals [2, 7]: significant increase

O=S(=O)(c1cccc2cnccc12)N1CCCNCC1 [fasudil]
abnormal involuntary movements (AIMs), total score and separate components (extremity, axial, orolingual) ([3]; FIG. 2, fasudil 10 mg/kg and 30-40 mg, chronic L-DOPA 23 and 32 days, p<0.05): statistically significant reduction | reduction in dyskinesia in conditions of severe dyskinesia ([3]; L-DOPA dose increased to 24 mg/kg at the end of the treatment, fasudil dose not stated): approximately 50% | axial reduction in dyskinesias [3, 8]: ~35% | orolingual reduction in dyskinesias [3, 8]: ~30% | reduction in dyskinesias in the extremities ([3]; fasudil 10 mg/kg/day i.p., from 5 days before and 30 min before each L-DOPA 6 mg/kg, 3 weeks, relative to L-DOPA only): ~25% | axial reduction in dyskinesias [3, 9]: 60% | extremity reduction in dyskinesias [3, 9]: 60% | orolingual reduction in dyskinesias [3, 9]: 70% | reduction in dyskinesia ([3]; fasudil 40 mg/kg i.p., chronic L-DOPA): 70% | rotations induced by L-DOPA (rotational behavior) [4]: unaffected; also recorded: no differences were observed | effect on established dyskinetic movements ([5]; FIG. 4B, fasudil 30 and 40 mg/kg, even with L-DOPA 24 mg/kg, p<0.05): significant reduction | reduction in established dyskinesias, severe dyskinesia ([5]; L-DOPA increased to 24 mg/kg, maintained up to the end of the treatment): approximately 50% | effect on established dyskinetic movements ([5]; fasudil 10 mg/kg/day, up to 7 days of treatment, after 3 weeks of L-DOPA): did not have any effect; also recorded: no improvement | day of treatment from which the reduction in established dyskinesias was seen ([5]; fasudil 40 mg/kg/day): third | reduction in established dyskinesias ([5]; fasudil 40 mg/kg/day, after 3 weeks of L-DOPA): about 45% | dyskinesias reduced to (already dyskinetic animals) ([5]; fasudil 40 mg/kg, animals treated with L-DOPA for 3-4 weeks, summary statement): ~50%
